Source: PMC9303312, “Balancing Histone Deacetylase (HDAC) Inhibition and Drug‐likeness: Biological and Physicochemical Evaluation of Class I Selective HDAC Inhibitors” (Chemmedchem, 2022)
Values after ≈ are worked out from the molar mass of the structure shown.

Legend:
HDAC3/NcoR2 = HDAC3/NcoR2 (Homo sapiens, UniProt O15379); assay: In vitro HDAC inhibition preincubation assay (ZMAL substrate)
[1] = Solubility in PBS buffer by OECD flask method with HPLC quantification; format: physicochemical; settings: 25 °C, pH 7.4, aqueous buffer, thermodynamic from solid, pH=7.4, flask method, 25 °C, 72 h, mean ±SD, read-out: Solubility
HDAC2 [2] = target: T1, HDAC2 (Homo sapiens, UniProt Q92769); assay: In vitro HDAC inhibition preincubation assay (ZMAL substrate)
human recombinant HDAC6 = target: T2, human recombinant HDAC6 (Homo sapiens, UniProt Q9UBN7); assay: as above
T2 sequence (Q9UBN7 1-1215): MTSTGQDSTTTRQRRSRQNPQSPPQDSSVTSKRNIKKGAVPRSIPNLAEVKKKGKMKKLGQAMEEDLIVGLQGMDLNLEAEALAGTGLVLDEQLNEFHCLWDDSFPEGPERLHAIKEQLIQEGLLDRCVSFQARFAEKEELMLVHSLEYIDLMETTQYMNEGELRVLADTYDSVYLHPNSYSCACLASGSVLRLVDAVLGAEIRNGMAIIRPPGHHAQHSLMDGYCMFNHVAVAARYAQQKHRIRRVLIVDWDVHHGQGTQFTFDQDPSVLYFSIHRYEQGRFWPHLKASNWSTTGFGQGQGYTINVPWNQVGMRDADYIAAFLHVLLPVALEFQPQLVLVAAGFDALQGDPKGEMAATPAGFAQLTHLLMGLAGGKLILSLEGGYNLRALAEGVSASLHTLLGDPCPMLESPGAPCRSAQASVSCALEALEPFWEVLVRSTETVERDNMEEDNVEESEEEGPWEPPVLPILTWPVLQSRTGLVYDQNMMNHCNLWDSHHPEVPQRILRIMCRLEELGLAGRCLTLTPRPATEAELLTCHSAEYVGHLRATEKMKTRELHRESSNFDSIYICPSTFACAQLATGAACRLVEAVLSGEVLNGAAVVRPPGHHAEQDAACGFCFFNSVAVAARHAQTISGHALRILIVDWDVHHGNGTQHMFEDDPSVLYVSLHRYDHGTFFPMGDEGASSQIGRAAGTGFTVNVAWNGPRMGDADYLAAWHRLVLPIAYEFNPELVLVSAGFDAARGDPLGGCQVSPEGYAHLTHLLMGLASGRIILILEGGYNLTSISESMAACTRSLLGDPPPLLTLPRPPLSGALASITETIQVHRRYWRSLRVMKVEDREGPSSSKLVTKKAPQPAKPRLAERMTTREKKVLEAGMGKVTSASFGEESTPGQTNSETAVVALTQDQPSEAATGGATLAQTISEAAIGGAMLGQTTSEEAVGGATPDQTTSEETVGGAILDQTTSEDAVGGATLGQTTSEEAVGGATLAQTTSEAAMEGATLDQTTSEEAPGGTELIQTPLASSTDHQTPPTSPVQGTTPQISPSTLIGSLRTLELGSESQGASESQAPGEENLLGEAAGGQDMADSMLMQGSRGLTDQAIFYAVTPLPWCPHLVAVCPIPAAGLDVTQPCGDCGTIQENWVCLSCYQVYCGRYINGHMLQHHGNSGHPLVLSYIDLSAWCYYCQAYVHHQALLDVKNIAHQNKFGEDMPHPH

[3] = LogD7.4 by OECD slow-stirring method with HPLC quantification; settings: 1-octanol/PBS buffer (mutually saturated), pH 7.4, LogD7.4, slow-stirring method, 1-octanol/PBS buffer pH 7.4, 25 °C, 48 h
HDAC1 [4] = target: T3, HDAC1 (Homo sapiens, UniProt Q13547); assay: In vitro HDAC inhibition preincubation assay (ZMAL substrate)
MCF‐7 cells = assay: Modified wound healing (migration) assay; format: cell-based, human; settings: MCF-7, 10 μM, followed over 97 h, compared to DMSO control
Description: Migration assay. 3D printed (size: 0.5 mm gap) culture-inserts (custom made) were used for pre-
After preincubation with DMSO (1%) or HDACi (10µM) for 24 h medium was removed, wells were washed once with PBS and fresh FCS-free medium with same inhibitor added.
a Axiovert 200 microscope (Carl-Zeiss, Jena, Germany). Migration speed was quantified as reduced scratch wound over time.

[5] = system: acetylated α‐tubulin (HDAC6 activity) in MCF‐7 cells; assay: Western blot target engagement in MCF-7 cells: acetylated α-tubulin; format: cell-based, human; settings: MCF-7 cell lysates after 24-hour treatment
HDAC1 [6] = target: T3, HDAC1; assay: 100-fold Jump-Dilution experiments; format: biochemical; settings: diluted inhibitor concentration as indicated per compound, vehicle [DMSO 1 %]=111.9
HDAC1 [7] = target: T3, HDAC1; assay: Binding kinetics via the Progression Method; format: biochemical; settings: relationship between kobs and [I]; triplicates
Description: To determine the binding mechanism at the respective HDAC isoform, a series of progression curves were generated, using fixed concentrations of enzyme, substrate, and different inhibitor concentrations. The in situ AMC release was monitored continuously by fluorescence readings recorded every 30 s for 60 or 90 min at 37 °C. The data of each progression curve were fitted to the appropriate equation (Prism 9.1.0 for MacOS). For inhibitors showing slow‐binding Mechanism I&II (Figure 5) time‐dependent product formation follows Eq. 1: (Eq. 1) P=vsst+vin-vss/kobs1-e^-kobst
where [P] is the amount of generated AMC, which directly correlates with the amount of deacetylated substrate over time [t]. V in and v ss are the initial and final steady‐state velocities of product formation and k obs is the apparat first‐order rate constant for the conversion from the initial velocity to the steady‐state velocity. It characterizes the formation of an enzyme–inhibitor equilibrium.
Fast‐on/fast‐off inhibitors. […] In this case Eq. 1 simplifies as follows: (Eq. 2) P=vsst
Therefore, the deacetylation rate in absence (v 0) and presence (v i) of the inhibitor is constant over time. […] [I] and [S] are the inhibitor and substrate concentrations, respectively and K m is the Michaelis‐Menten constant.
Slow‐binding inhibitors. The slow‐binding Mechanisms I & II are distinguished by their respective relationships between k obs and the inhibitor concentration. For the single‐step slow‐binding Mechanism I the relationship between inhibitor concentration and k obs is linear. The association and dissociation rate constants (k 1 & k −1, see Figure 5) can be obtained by fitting k obs as a function of [I] to Eq. 4. (Eq. 4) kobs=k-1+k11+S/KmI
The secondary association and dissociation rate constants k 2 & k −2 (see Figure 5) as well as the equilibrium dissociation constant K i,1 of the initial inhibitor‐enzyme encounter complex [EI] can be obtained by fitting k obs as a function of [I] (Eq. 5. (Eq. 5) kobs=k-2+k2/I+Ki,11+S/KmI
Determination of binding kinetics via the Progression Method.[14] HDAC1 and HDAC3
deacetylase activities were evaluated at varying inhibitor concentrations. Appropriate inhibitor
concentrations were chosen based on the previously determined IC50 values. To ensure substrate
excess during the experiment, the substrate concentration was set to five times Km. Km was
determined using a series of substrate concentrations.
For the progression curves, the
respective enzyme was incubated with the fluorogenic substrate and inhibitor in assay buffer
90 minutes at 37°C. The relationship between AMC concentration and relative fluorescence units
(RFU) was determined and the measured RFU were transformed into the respective AMC
concentration in µM. […]

HDAC1 [8] = target: T3, HDAC1; assay: IC50-shift experiments (varied preincubation time); format: biochemical; settings: triplicates
[9] = system: BT‐474 breast cancer cell line; assay: WST-8 cell viability assay; settings: Homo sapiens, BT-474, 120 h, read-out: IC50 BT‐474
[10] = system: MCF‐7 breast cancer cell line; assay: WST-8 cell viability assay; settings: Homo sapiens, MCF7, 120 h, read-out: IC50 MCF‐7
HDAC2 [11] = target: T1, HDAC2; assay: IC50-shift experiments (varied preincubation time); format: biochemical; set-up: purchased BPS Bioscience 50052; settings: triplicates
Description: into OptiPlate-96 black micro-plates (PerkinElmer).
Afterwards, the fluorogenic substrate ZMAL
The total assay volume (50 µL,
max. […] Subsequently, 50 µL trypsin solution (0.4
enzymes and the respective inhibitor dilutions were preincubated at 20 °C for 5 to 120 minutes.
Afterwards, the assay protocol was continued as stated above. Compounds were tested in
triplicates and the assay was rerun if necessary. The respective IC50 values and P95 confidence
intervals were determined using Prism 9 for MacOS.

[12] = system: T‐47D breast cancer cell line; assay: WST-8 cell viability assay; settings: Homo sapiens, T47D, 120 h, read-out: IC50 T‐47D

Sequence of HDAC3/NcoR2 (O15379 whole entry): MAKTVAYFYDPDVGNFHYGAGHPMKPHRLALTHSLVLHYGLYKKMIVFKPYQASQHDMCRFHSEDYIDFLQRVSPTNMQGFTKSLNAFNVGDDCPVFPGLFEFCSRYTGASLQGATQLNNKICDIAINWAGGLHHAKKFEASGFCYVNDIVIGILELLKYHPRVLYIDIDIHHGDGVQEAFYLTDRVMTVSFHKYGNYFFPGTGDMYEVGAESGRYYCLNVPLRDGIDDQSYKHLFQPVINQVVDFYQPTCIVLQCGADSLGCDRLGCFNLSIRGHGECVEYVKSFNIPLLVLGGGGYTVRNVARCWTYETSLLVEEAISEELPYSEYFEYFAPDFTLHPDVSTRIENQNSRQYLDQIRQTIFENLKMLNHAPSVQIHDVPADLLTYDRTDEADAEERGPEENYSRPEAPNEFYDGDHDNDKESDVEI
Sequence of HDAC3/NcoR2 (Q9Y618 395-489 partner limits assumed): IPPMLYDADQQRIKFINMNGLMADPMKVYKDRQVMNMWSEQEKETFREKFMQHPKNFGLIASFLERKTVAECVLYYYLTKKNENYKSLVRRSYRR
T3 sequence (Q13547 whole entry): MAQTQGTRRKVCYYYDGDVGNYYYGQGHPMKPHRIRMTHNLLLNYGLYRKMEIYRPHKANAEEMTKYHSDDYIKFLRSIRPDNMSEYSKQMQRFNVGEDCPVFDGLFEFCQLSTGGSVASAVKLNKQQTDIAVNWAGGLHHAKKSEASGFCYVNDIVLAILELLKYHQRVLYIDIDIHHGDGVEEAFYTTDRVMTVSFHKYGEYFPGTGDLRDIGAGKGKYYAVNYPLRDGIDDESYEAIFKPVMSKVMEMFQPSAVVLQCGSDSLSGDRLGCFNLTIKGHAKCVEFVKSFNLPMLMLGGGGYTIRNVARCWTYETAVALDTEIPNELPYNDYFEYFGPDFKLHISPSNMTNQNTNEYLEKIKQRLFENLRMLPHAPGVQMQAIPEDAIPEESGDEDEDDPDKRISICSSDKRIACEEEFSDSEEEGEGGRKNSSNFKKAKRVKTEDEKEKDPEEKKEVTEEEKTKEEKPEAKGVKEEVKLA
T1 sequence (Q92769 whole entry): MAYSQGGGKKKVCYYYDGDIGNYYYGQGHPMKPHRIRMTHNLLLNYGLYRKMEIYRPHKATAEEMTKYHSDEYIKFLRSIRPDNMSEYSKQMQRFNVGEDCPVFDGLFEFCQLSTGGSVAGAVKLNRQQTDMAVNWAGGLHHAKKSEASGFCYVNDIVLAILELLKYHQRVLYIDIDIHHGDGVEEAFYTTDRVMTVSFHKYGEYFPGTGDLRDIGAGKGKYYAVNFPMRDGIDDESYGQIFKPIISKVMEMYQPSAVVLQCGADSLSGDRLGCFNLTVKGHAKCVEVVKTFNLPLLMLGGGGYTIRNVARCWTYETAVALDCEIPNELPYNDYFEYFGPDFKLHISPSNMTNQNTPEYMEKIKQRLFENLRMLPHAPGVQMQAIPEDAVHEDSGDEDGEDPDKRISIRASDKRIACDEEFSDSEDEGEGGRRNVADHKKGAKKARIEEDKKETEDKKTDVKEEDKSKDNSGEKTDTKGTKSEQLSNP

## CC(=O)Nc1ccc(C(=O)Nc2cc(-c3ccccc3)ccc2N)cc1 [6 a]
HDAC3/NcoR2
  IC50: 3960 nM
[1]
  solubility at 72 h: 1.49 ± 0.14 µg/mL (≈ 4.31 µM)
HDAC2 [2]
  IC50: 51.4 ± 4.9 nM
Human recombinant HDAC6
  IC50: > 10000 nM
[3]
  logD at 48 h: 2.63
HDAC1 [4]
  IC50: 4.5 ± 0.1 nM

## CC(=O)Nc1ccc(C(=O)Nc2cc(-c3ccc(F)cc3)ccc2N)cc1 [6 b]
HDAC3/NcoR2
  IC50: 2000 nM
[1]
  solubility at 72 h: 0.45 ± 0.04 µg/mL (≈ 1.24 µM)
HDAC2 [2]
  IC50: 44.7 ± 6.9 nM
Human recombinant HDAC6
  IC50: > 10000 nM
[3]
  logD at 48 h: 3.41
HDAC1 [4]
  IC50: 4.4 ± 0.1 nM

## CC(=O)Nc1ccc(C(=O)Nc2cc(-c3cccs3)ccc2N)cc1 [6 c]
[1]
  solubility at 72 h: 0.74 ± 0.01 µg/mL (≈ 2.11 µM)
[3]
  logD at 48 h: 2.8

## CC(=O)Nc1ccc(C(=O)Nc2cc(-c3ccncc3)ccc2N)cc1 [6 d]
HDAC3/NcoR2
  IC50: 8910 nM
[1]
  solubility at 72 h: 16.5 ± 0.3 µg/mL (≈ 47.6 µM)
MCF‐7 cells
  effect on cell migration (wound closure): attenuated cell migration significantly
HDAC2 [2]
  IC50: 77.2 ± 9.2 nM
[5]
  acetylated α‐tubulin (western blot): non‐detectable
HDAC1 [6]
  Final slope of progression curve after 100-fold dilution (HDAC1): 39.4 RFU*min^−1
HDAC1 [7]
  binding mechanism at HDAC1: slow‐binding Mechanism II
HDAC1 [8]; HDAC1 IC50, preincubation 5 min, preincubation time 5 min at 20°C
  IC50: 54.1 nM
HDAC1 [8]; HDAC1 IC50, preincubation 15 min, preincubation time 15 min at 20°C
  IC50: 53.5 nM
HDAC1 [8]; HDAC1 IC50, preincubation 30 min, preincubation time 30 min at 20°C
  IC50: 44.5 nM
HDAC1 [8]; HDAC1 IC50, preincubation 60 min, preincubation time 60 min at 20°C
  IC50: 40.8 nM
HDAC1 [8]; HDAC1 IC50, preincubation 120 min, preincubation time 120 min at 20°C
  IC50: 25.4 nM
[9]
  IC50: > 8000 nM
Human recombinant HDAC6
  IC50: > 10000 nM
[10]
  IC50: 11100 ± 3850 nM
[3]
  logD at 48 h: 1.75
HDAC2 [11]; HDAC2 IC50, preincubation 5 min, preincubation time 5 min at 20°C
  IC50: 98.2 nM
HDAC2 [11]; HDAC2 IC50, preincubation 15 min, preincubation time 15 min at 20°C
  IC50: 89 nM
HDAC2 [11]; HDAC2 IC50, preincubation 30 min, preincubation time 30 min at 20°C
  IC50: 83 nM
HDAC2 [11]; HDAC2 IC50, preincubation 60 min, preincubation time 60 min at 20°C
  IC50: 77.4 nM
HDAC2 [11]; HDAC2 IC50, preincubation 120 min, preincubation time 120 min at 20°C
  IC50: 63.2 nM
[12]
  IC50: 1010 ± 190 nM
HDAC1 [4]
  IC50: 13.2 ± 1 nM
HDAC1 [4]; ratio of IC50 values HDAC3/HDAC1
  selectivity for HDAC1 over HDAC3: 675 fold

## CC(=O)Nc1ccc(C(=O)Nc2cc(-c3cccnc3)ccc2N)cc1 [6 e]
HDAC3/NcoR2
  IC50: 636 ± 49.5 nM
[1]
  solubility at 72 h: 37.7 ± 3.61 µg/mL (≈ 109 µM)
HDAC2 [2]
  IC50: 101 ± 5.4 nM
Human recombinant HDAC6
  IC50: > 10000 nM
[3]
  logD at 48 h: 1.7
HDAC1 [4]
  IC50: 76.7 ± 9.2 nM

## CC(=O)Nc1ccc(C(=O)Nc2cc(-c3ccccn3)ccc2N)cc1 [6 f]
HDAC3/NcoR2
  IC50: 17400 nM
[1]
  solubility at 72 h: 42 ± 0.19 µg/mL (≈ 121 µM)
HDAC2 [2]
  IC50: 333 ± 5.1 nM
Human recombinant HDAC6
  IC50: > 10000 nM
[3]
  logD at 48 h: 1.77
HDAC1 [4]
  IC50: 207 ± 4.4 nM

## CC(=O)Nc1ccc(C(=O)Nc2cc(-c3ccc(F)nc3)ccc2N)cc1 [6 g]
HDAC3/NcoR2
  IC50: 767 ± 31.7 nM
[1]
  solubility at 72 h: 7.66 ± 0.08 µg/mL (≈ 21 µM)
HDAC2 [2]
  IC50: 118 ± 4 nM
Human recombinant HDAC6
  IC50: > 10000 nM
[3]
  logD at 48 h: 1.97
HDAC1 [4]
  IC50: 93.5 ± 2.4 nM
